Experimental data: patent US20130150363A1, “Method of Treating Cancer Using a cMET and AXL Inhibitor and an ErbB Inhibitor” (GlaxoSmithKline, priority 2008, published 2013)

Experiments:
[1] = tested on: SNU-16 gastric carcinoma cells; assay: Cell growth inhibition (CellTiter-Glo), SNU-16; format: cell-based; settings: Homo sapiens, SNU-16, 72 h, 3 days
From the text: Esophageal carcinoma cell line OE33 was purchased from ECACC European Collection of Cell Cultures (UK). Breast cancer cell line JIMT-1 and gastric carcinoma cell line MKN-45 were purchased from Deutsche Sammlung von Mikroorganismen and Zellkulturen GmbH (Germany); KPL-4, a human breast cancer cell line was kindly provided by Prof. J Kurebayashi (Kawasaki Medical School, Kurashiki, Japan). […] The LICR-LON-HN5 head and neck carcinoma cell line (HN5) was a gift from the Institute of Cancer Research, Surrey, U.K. HN5C12 was developed by single-cell cloning of HN5 followed by exposure to increasing concentrations of lapatinib. […] Cell growth inhibition was determined via CellTiter-Glo cell viability assays. […] ATP levels were determined by adding Cell Titer Glo0 (Promega), incubating for 20 minutes then the luminescent signal was read on the SpectraMax M5 plate with a 0.5 second integration time. Cell growth was calculated relative to vehicle (DMSO) treated control wells. […] CI values were calculated with the interpolated IC50 values and the mutually non-exclusive equation derived by Chou and […](a)+Db/IC50(b)+(Da×Db)/(IC50(a)×IC50(b)) where IC50(a) is the IC50 of the inhibitor A; IC50(b) is the IC50 for the inhibitor B; […] […] EOHSA at each dose was calculated as the minimum difference in average % inhibition between the combination and each monotherapy, from the appropriate ANOVA contrast. […]

[2] = tested on: lung_H1975 tumor cells; assay: Cell growth inhibition (CellTiter-Glo), H1975; format: cell-based; settings: Homo sapiens, NCI-H1975, 72 h, 3 days
[3] = tested on: phosphorylation of HER2, AKT, ERK and cyclin D1 in BT474 cells; assay: Western blot analysis, BT474; format: cell-based, human; settings: BT474, 1 μM, 4 h
Procedure: Cells were plated at 250,000 to 500,000 per well in six-well plates (Falcon multiwell, Becton Dickinson, Franklin Lakes, N.J.). The following day, cells were treated with compounds in the growth medium containing 10% FBS. After treatment, cells were washed with cold PBS and lysed in the culture dishes using cell lysis buffer [40 mmol/L Tris-HCl (pH 7.4), 10% glycerol, 50 mmol/L beta-glycerophosphate, 5 mmol/L EGTA, 2 mmol/L EDTA, 0.35 mmol/L vanadate, 10 mmol/L NaF, and 0.3% Triton X-100] containing protease inhibitors (Complete Protease Inhibitor Tablets, Boehringer Mannheim, Indianapolis, Ind.). […] The membrane blots were rinsed with PBS and blocked in Odyssey Blocking buffer for 1 h at RT. Blots were probed with antibodies against specific proteins in blocking buffer plus 0.1% Tween 20 and incubated for 2 h at room temperature. The membranes were washed and incubated with IRDye 680 or IRDye 800 secondary antibodies at RT for 1 h in blocking buffer plus 0.1% Tween 20. The membranes were developed with Odyssey Infrared Imaging System (LI-COR Biosciences, Lincoln, Nebr.).
Cell lysate (50 μg of total protein) or proteins immunoprecipitated with anti-phospho-Tyrosine antibody were loaded in SDS-PAGE gel. The antibody against specific protein was used in the western blot analysis.

[4] = tested on: N87 gastric carcinoma cells; assay: Cell growth inhibition (CellTiter-Glo), N87; format: cell-based; settings: Homo sapiens, 72 h, 3 days
From the text: Esophageal carcinoma cell line OE33 was purchased from ECACC European Collection of Cell Cultures (UK). Breast cancer cell line JIMT-1 and gastric carcinoma cell line MKN-45 were purchased from Deutsche Sammlung von Mikroorganismen and Zellkulturen GmbH (Germany); KPL-4, a human breast cancer cell line was kindly provided by Prof. J Kurebayashi (Kawasaki Medical School, Kurashiki, Japan). […] The LICR-LON-HN5 head and neck carcinoma cell line (HN5) was a gift from the Institute of Cancer Research, Surrey, U.K. HN5C12 was developed by single-cell cloning of HN5 followed by exposure to increasing concentrations of lapatinib. […] Cell growth inhibition was determined via CellTiter-Glo cell viability assays. […] BT474-J4 and HN5C12 were washed with PBS and plated in their culture media without lapatinib. […] ATP levels were determined by adding Cell Titer Glo0 (Promega), incubating for 20 minutes then the luminescent signal was read on the SpectraMax M5 plate with a 0.5 second integration time. Cell growth was calculated relative to vehicle (DMSO) treated control wells. […] EOHSA at each dose was calculated as the minimum difference in average % inhibition between the combination and each monotherapy, from the appropriate ANOVA contrast. […] The p-values for both synergy and antagonism were calculated using this adjustment.

[5] = tested on: OE33 esophageal carcinoma cells; assay: Cell growth inhibition (CellTiter-Glo), OE33; format: cell-based, human; settings: 3 days
From the text: (§1) Esophageal carcinoma cell line OE33 was purchased from ECACC European Collection of Cell Cultures (UK). Breast cancer cell line JIMT-1 and gastric carcinoma cell line MKN-45 were purchased from Deutsche Sammlung von Mikroorganismen and Zellkulturen GmbH (Germany); KPL-4, a human breast cancer cell line was kindly provided by Prof. J Kurebayashi (Kawasaki Medical School, Kurashiki, Japan). […] The LICR-LON-HN5 head and neck carcinoma cell line (HN5) was a gift from the Institute of Cancer Research, Surrey, U.K. HN5C12 was developed by single-cell cloning of HN5 followed by exposure to increasing concentrations of lapatinib. […] Cell growth inhibition was determined via CellTiter-Glo cell viability assays. […] BT474-J4 and HN5C12 were washed with PBS and plated in their culture media without lapatinib. […] ATP levels were determined by adding Cell Titer Glo0 (Promega), incubating for 20 minutes then the luminescent signal was read on the SpectraMax M5 plate with a 0.5 second integration time. Cell growth was calculated relative to vehicle (DMSO) treated control wells. […] Excess Over Highest Single Agent (EOHSA) is defined as a statistically significant improvement in the combination compared to the component monotherapies. […] Analysis was conducted using two-factor analysis of variance with interaction (model terms were dose of drug A, dose of drug B, and interaction between doses of drug A and B), followed by linear contrasts between each combination group and corresponding monotherapies. Analysis was conducted using SAS (version 9, provided by SAS Institute, Cary, N.C.). EOHSA at each dose was calculated as the minimum difference in average % inhibition between the combination and each monotherapy, from the appropriate ANOVA contrast. Since there are many comparisons for the % inhibition endpoint, p-value adjustment for multiple comparisons was performed. Hommel's procedure was implemented in order to improve the power while retaining […] Error Rate (FWE) control by using a sequentially rejective method. The p-values for both synergy and antagonism were calculated using this adjustment.

[6] = tested on: BT474-J4 lapatinib resistant breast carcinoma cells; assay: Cell growth inhibition (CellTiter-Glo), BT474-J4; format: cell-based; settings: Homo sapiens; for IC50: 72 h, 3 days
From the text: as §1, with “Error Rate (FWE) control by using a sequentially rejective method.” left out

Row | IC50 ([1]; gastric_SNU16, +HGF (2 ng/mL)) [µM] | IC50 ([1]; gastric_SNU16, −HGF) [µM] | IC50 ([2]; lung_H1975, +HGF (2 ng/mL)) [µM] | IC50 ([2]; lung_H1975, −HGF) [µM] | IC50 ([4]; gastric_N87, +HGF (2 ng/mL)) [µM] | IC50 ([4]; gastric_N87, −HGF) [µM] | IC50 ([5]; Homo sapiens, OE33, 72 h, eso_OE33, +HGF (2 ng/mL)) [µM] | IC50 ([5]; Homo sapiens, OE33, 72 h, eso_OE33, −HGF) [µM] | IC50 ([5]; eso_OE33, +HGF (2 ng/mL)) [µM] | IC50 ([5]; eso_OE33, −HGF) [µM] | IC50 ([6]; breast_BT474-J4, +HGF (2 ng/mL)) [µM] | IC50 ([6]; breast_BT474-J4, −HGF) [µM] | Compound | downstream signaling: phosphorylation of AKT and ERK, level of cyclin D1 [3] | phosphorylation of HER2 [3] | inhibition at 1 µM ([6]; BT474-J4, lapatinib by itself at 1.0 μM (FIG. 5A)) [%]
1 | 9.37 | 6.46 | > 10 | > 10 |  |  |  |  |  |  |  |  | C#Cc1cccc(Nc2ncnc3cc(OCCOC)c(OCCOC)cc23)c1 [Erlotinib, N-(3-ethynylphenyl)-6,7-bis{[2-(methyloxy)ethyl]oxy}-4-quinazolinamine] |  |  | 
2 |  |  |  |  | 4.8 | 0.05 | > 10 | 6.5 | 5.52 | 6.52 | > 10 | > 10 | CS(=O)(=O)CCNCc1ccc(-c2ccc3ncnc(Nc4ccc(OCc5cccc(F)c5)c(Cl)c4)c3c2)o1 [Lapatinib, N-(3-chloro-4-{[(3-fluorophenyl)methyl]oxy}phenyl)-6-[5-({[2-(methylsulfonyl)ethyl]amino}methyl)-2-furanyl]-4-quinazolinamine] | inhibits | inhibits | < 50
